Measured values published in patent US8354455B2, “Prodrugs containing novel bio-cleavable linkers” (Piramal Enterprises Limited and Apparao Satyam, priority 2004, dated 2013).
Values after ≈ are worked out from the molar mass of the structure shown.

How the values were obtained:
[1] = In vitro plasma stability; format: in vitro ADME; conditions: rat plasma, 37° C., 30 minutes incubation, HPLC
Description: The compounds were extracted back into acetonitrile with rigorous vortex.

[2] = system: rats; conditions: rat, in vivo, po, 100 mg/kg
[3] = both, Sprague-Dawley, rat, in vivo, po, 35 mg/kg
[4] = system: carrageenan-induced rat paw edema; assay: Carrageenan-induced rat paw edema; format: in vivo; conditions: 75 mg/kg equivalent dose of aspirin, p.o.; for Rat paw edema (% inhibition) 1 hour / Rat paw edema (% inhibition) 2 hour / Rat paw edema (% inhibition) 4 hour / Rat paw edema (% inhibition) 6 hour: Mean ± SEM, n = 6
[5] = Water solubility (HPLC of supernatant); format: physicochemical
Description: Water solubility: Paclitaxel and its prodrug I-S22-PD2 (2 mg each) were suspended in 1 mL water or PBS-buffer (pH 7.4). The suspensions were sonicated for 15 min and centrifuged (13,000 g) for 10 min. The supernatant was analyzed using HPLC.
HPLC: Waters RP18 column ([…], X-Terra); DAD-HP Agilent (Model 1100); eluent: CH3CN:H2O (gradient 0-100% acetonitrile in 0-15 min). The UV-detector was set at […]. The concentrations were determined by measuring the relative area of paclitaxel or I-S22-PD2. […] (i.e., ˜0.2 mg/mL).

[6] = system: MES-induced seizures; assay: animal or person; format: in vivo, rats; conditions: Test 2, rats p.o., 50 mg/kg
[7] = system: convulsant metrazol; assay: Subcutaneous Metrazol Seizure Threshold Test (scMET), Test 1, mice i.p.; format: in vivo; conditions: mice, i.p.
[8] = system: MES-induced seizures; assay: Maximal Electroshock Test (MES), Test 1, mice i.p.; format: in vivo
[9] = system: rats; conditions: rat, in vivo, po, 50 mg/kg
Description: Acute Toxicity—Minimal Motor Impairment (MMI): To assess a compound's undesirable side effects (toxicity), animals were monitored for overt signs of impaired neurological or muscular function.
Groups of at least 8 rats received various doses of the candidate compound until at least two points were established between the limits of 100 percent protection or toxicity and zero percent protection or minimal toxicity. The 95 percent confidence limits, slopes of the regression lines and standard errors of the slopes were calculated for each quantitative determination. Rats received test compounds orally.
This secondary evaluation determines the time to peak effect (TPE), neurotoxicity, median effective dose (ED50) and biological response.

[10] = system: mice

CC(=O)Oc1ccccc1C(=O)OCCSSCCO[N+](=O)[O-] [I-C1-NOPD4]
release of parent drug / conversion to salicylate (in words) [1]: converting to the expected metabolite (salicylate)
ulcers (in words) [2]: none of the animals treated with the test compounds showed any signs of development of ulcers
salicylate release / absorption profile (in words) [3]: released in a sustained and controlled manner starting from 1 hour through 12 hours
anti-inflammatory activity (in words) [4]: significant activity during the first two hours
Rat paw edema (% inhibition) 1 hour [4]: 42.4 ± 13.3%
Rat paw edema (% inhibition) 2 hour [4]: 44.9 ± 12.9%
Rat paw edema (% inhibition) 4 hour [4]: 24.3 ± 7.7%
Rat paw edema (% inhibition) 6 hour [4]: 8.6 ± 5.1%

CC(=O)Oc1ccccc1C(=O)O [Aspirin, reference compound]
release of parent drug / conversion to salicylate (in words) [1]: completely metabolized to salicylate
ulcers (in words) [2]: severe haemorrhagic lesions
salicylate release / absorption profile (in words) [3]: highest during 0.5-6.0 hrs
anti-inflammatory activity (in words) [4]: anti-inflammatory activity from 1 hr through 6 hr with peak maximal activity at 4 hr
Rat paw edema (% inhibition) 1 hour [4]: 31.0 ± 7.2%
Rat paw edema (% inhibition) 2 hour [4]: 52.5 ± 3.4%
Rat paw edema (% inhibition) 4 hour [4]: 60.7 ± 6.9%
Rat paw edema (% inhibition) 6 hour [4]: 42.8 ± 6.9%

CC(=O)O[C@H]1C(=O)[C@@]2(C)C([C@H](OC(=O)c3ccccc3)[C@]3(O)C[C@H](OC(=O)[C@H](OC(=O)OCCSSCCOC(=O)CCC(=O)O)[C@@H](NC(=O)c4ccccc4)c4ccccc4)C(C)=C1C3(C)C)[C@]1(OC(C)=O)CO[C@@H]1C[C@@H]2O (stereo partly drawn) [I-S22-PD2]
solubility at 15 min ([5]; aqueous buffer, thermodynamic from solid, 2 mg suspended in 1 mL water or PBS-buffer (pH 7.4), sonicated, centrifuged): ~200 µg/mL (≈ 176 µM)
solubility relative to paclitaxel ([5]; water or PBS-buffer (pH 7.4)): 20 times

CCOC(=O)CC1(CNC(=O)OCCSSCC(=O)OC)CCCCC1 [I-A1-PD5]
MES (number of animal protected/number of animal tested) ([6]; 0.50 h): 0/4
MES (number of animal protected/number of animal tested) ([6]; 1.00 h): 0/4
MES (number of animal protected/number of animal tested) ([6]; 2.00 h): 1/4
MES (number of animal protected/number of animal tested) ([6]; 4.00 h): 1/4
ScMET (number of animal protected/number of animal tested) ([7]; 0.5 h, 300 mg/kg (+)): (3/5)
ScMET 0.5 h ([7]; 0.5 h, symbol = dose with activity): + (+ = activity or toxicity at 300 mg/kg)
ScMET 4.0 h ([7]; 4.0 h, symbol = dose with activity): — (— = no activity or no toxicity at 300 mg/kg)
activity in MES model (in words) ([8]; Test 1, mice i.p.): active in MES
MES (number of animal protected/number of animal tested) ([8]; mice, i.p., 0.5 h, 300 mg/kg (+)): (1/1)
MES 0.5 h ([8]; mice, i.p., 0.5 h, symbol = dose with activity): + (+ = activity or toxicity at 300 mg/kg)
MES 4.0 h ([8]; mice, i.p., 4.0 h, symbol = dose with activity): — (— = no activity or no toxicity at 300 mg/kg)
Toxicity (number of animals exhibiting toxicity/number of animals tested) [9]: 0/4
toxicity (in words) ([10]; Test 1, mice i.p.): no or mild toxicity
Rotorod Toxicity 0.5 h ([10]; mice, i.p., 0.5 h, symbol = dose with toxicity): + (+ = activity or toxicity at 300 mg/kg)
Rotorod Toxicity 4.0 h ([10]; mice, i.p., 4.0 h, symbol = dose with toxicity): — (— = no activity or no toxicity at 300 mg/kg)
